Data taken from patent US6358491B1, “Somatostatin analogs” (Berlex Laboratories, Inc., priority 1999, dated 2002).
Like-named read-outs stand apart in the source and are kept apart here. *1 amine or outer side, *2 acyl side, *3 side chain or, on linkers, in order; H or OH if unused. Where a SMILES comes first, the peptide text is derived from it. Bridges are numbered along the chain shown (N, C = ends). Roman numbers before positions name the chains, in order. [ ]: non-standard residue; d: D form. ξ: configuration not given here. Phe(4-NH2) = Nc1ccc(C[C@H](N)C(=O)O)cc1; NMehCys = CN[C@@H](CCS)C(=O)O; Thr(3ξ) = CC(O)[C@H](N)C(=O)O; Dap = NC[C@H](N)C(=O)O; X1 = O=C(C[*:1])[*:2]

Legend:
[1] = test system: AR42J tumor xenografts; assay: Biodistribution of 99mTc-labeled compounds in nude mice with AR42J tumor xenografts; format: in vivo; details: 99mTc-labeled compound, 90 minutes post-injection; for TUMOR: i.v.; for T:B: tumor to blood ratio; for T:M: tumor to muscle ratio
Procedure: (§1) Rat pancreatic AR42J cells (ATCC, Rockville, Md., USA) were grown in Modified Ham's F12K medium (Cat. No. N-3520, Sigma, St. Louis, Mo., USA) containing 20% fetal bovine serum (FCS) (Cat. No. 1224, Lot No. 9702058, Sigma, St. Louis, Mo., USA) under sterile conditions in 95% humidity and 5% CO2. At a density of approximately 10×10^6 cells per T150 flask, the cells were harvested with trypsin and collected by centrifugation at 2400 rpm (800×g) for 15 minutes in a benchtop centrifuge (IEC Centra-8 tabletop centrifuge, International Equipment Company, Needham, Mass., USA). The cells were resuspended in medium containing 20% FCS for implantation.
(§2) Six female nude mice (CrlLNU/NU-nuBR, 6-8 weeks old) were injected subcutaneously into the right flank with tumor cells (2×10^7/100 μL) in 20% matrigel (Collaborative Biomedical Products, Chicago, Ill., USA). Fourteen days after inoculation tumors were visible in all animals. Three weeks after inoculation, tumors were aseptically dissected, minced and implanted into 60 nude mice using a trochar. The tumor xenografts from the second passage were used for biodistribution studies.
(§3) A dose of approximately 50-100 μCi ^99mTc-labeled compound/mouse was injected intravenously in a total volume of 100 μL. Mice were sacrificed 90 minutes post-injection by decapitation and the trunk blood was collected. Tumors (1 to 3 per mouse), liver, gastrointestinal tract, kidneys, and samples of muscle from both legs (quadriceps femoralis) were collected, weighed, and counted for radioactivity.

[2] = test system: SSTRs, NCI-H69 membranes; assay: [125I]SST-14 binding to NCI-H69 cell membranes (SSTR affinity); parameters: species or system human; details: inhibition of [125I]SST-14 binding, two-site fit
Procedure: (§4) [^125I-Tyr^11] somatostatin-14 ([^125I]SST-14) was obtained from Amersham. Unlabeled somatostatin-14 was purchased either from BACHEM (Torrance, Calif.) or from Sigma Chemical Co. (St. Louis, Mo.). Protease inhibitors, leupeptin, aprotinin, bacitracin, and benzamidine and other reagents were obtained from Sigma. Protease inhibitors were prepared in dimethylsulfoxide (DMSO) at a concentration 500×higher than the final assay concentration. The prepared protease solution was stored at −20° C. and diluted with the buffer solution before use.
Membrane preparations used in these studies were prepared from two commercially available tumor cell lines, the human small cell lung cancer cell line, NCI-H69, and the rat pancreatic tumor cell line, AR42J, obtained from American Type Culture Collection (ATCC) (Manassas, Va.). NCI-H69 cells were maintained by serial passage in RPMI 1640 with 10% fetal calf serum. AR42J cells were maintained in F-12K medium containing 20% fetal calf serum. Cells in culture flasks were incubated at 37° C. with 5% CO2 in air atmosphere following the recommendations of the “Product Sheet” from ATCC.
Cultured cells were first detached from plates with phosphate-buffered saline, pH 7.4, containing 2 mM EDTA, and centrifuged at 1,500×g for 10 min. Cells were then resuspended in 5-10 mL of the homogenization buffer (1 mM sodium bicarbonate, pH 7.4, 1 mM EDTA, 1 mM EGTA, 2.5 mM DTT, 5 μg/mL leupeptin, 5 μg/mL aprotinin, 100 μg/mL bacitracin, 100 μg/mL benzamidine) for 10 min on ice. The cells were lysed for 30 sec twice in a polytron with a setting at 5. The lysate was centrifuged at 1,000×g for 10 min at 4° C. The supernatant was centrifuged at 40,000×g for 20 min at 4° C. This step was repeated twice with the homogenization buffer in the absence of protease inhibitors. The pellet was then resuspended at 1-5 mg membrane protein/mL in 25 mM Tris, pH 7.4 without the addition of protease inhibitors and the membranes were stored at −80° C. before use. Membrane protein concentration was determined spectroscopically using the bicinchonic acid (BCA) protein assay kit (Pierce Chemical Inc. (Rockford, Ill.).
All [^125I]SST-14 binding assays were performed in 0.5 mL binding buffer containing 50 mM HEPES, pH 7.5, 10 mM MgCl2, 0.25% BSA (w/v) containing protease inhibitors (same as above) and incubated at 37° C. for 45 minutes. After incubation, samples were kept at 4° C. and rapidly filtered under vacuum through a Whatman GF/B glass fiber filter with a 12-well harvester (Skatron Instruments Inc., Sterling, Va.). The filter was washed for 9 seconds with cold 50 mM HEPES, pH 7.5, 10 mM MgCl2, 0.25% BSA (w/v). Thirty-five […] of [^125I]SST-14 from Amersham was used in each tube. Peptides were solubilized in DMSO and serially diluted with DMSO. Five μL of peptide in DMSO was used to obtain the final concentration. DMSO (5 μL) was added to the tube without the addition of any peptide or unlabeled SST-14, so that each tube contained 1% DMSO. Non-specific binding was defined as the binding of [^125I]SST-14 which was not displaceable with an excess of unlabeled SST-14 at a concentration of 1×10^−6 M. The bound [^125I]SST-14 without or with excess unlabeled SST-14 (1×10^−6 M) was defined as total binding and nonspecific binding, respectively. The difference between total and nonspecific binding was defined as specific binding. The percent inhibition (% Inh) by peptide was expressed as
% Inh=(total binding−total binding in the presence of peptide)/specific binding×100%
Inclusion of protease inhibitors in homogenizing medium as well as assay buffer is essential to maintain the integrity of both [^125I]SST-14 and somatostatin analogs for the receptor binding assay and to obtain optimal specific binding. The highest specific binding was observed when MgCl2 (10 mM) was included. Membranes were finally resuspended in a sodium-free medium and receptor binding assays were performed in the absence of sodium ions. […]

[3] = Biodistribution of 99mTc-labeled compounds in nude mice with AR42J tumor xenografts; format: in vivo; details: nude, mouse, iv, total radioactivity, 99mTc-labeled compound, 90 minutes post-injection; for tissue uptake dose at 1.5 h: i.v.
Procedure: as §1, §2, §3

[4] = test system: SSTRs, AR42J cell membranes; assay: [125I]SST-14 binding to AR42J cell membranes (SSTR affinity); parameters: species or system rat; details: inhibition of [125I]SST-14 binding; two-site fit; read-out: IC50 Values for AR42J Cell Membranes (first value)
Procedure: as §4
Membrane preparations used in these studies were prepared from two commercially available tumor cell lines, the human small cell lung cancer cell line, NCI-H69, and the rat pancreatic tumor cell line, AR42J, obtained from American Type Culture Collection (ATCC) (Manassas, Va.). […]
Cultured cells were first detached from plates with phosphate-buffered saline, pH 7.4, containing 2 mM EDTA, and centrifuged at 1,500×g for 10 min. […] Membrane protein concentration was determined spectroscopically using the bicinchonic acid (BCA) protein assay kit (Pierce Chemical Inc. (Rockford, Ill.).
All [^125I]SST-14 binding assays were performed in 0.5 mL binding buffer containing 50 mM HEPES, pH 7.5, 10 mM MgCl2, 0.25% BSA (w/v) containing protease inhibitors (same as above) and incubated at 37° C. for 45 minutes. […] The percent inhibition (% Inh) by peptide was expressed as […]

[5] = patient, four cycles of treatment; cited from earlier work
[6] = 24 hours post-injection, cited from earlier work
[7] = read-out: IC50 Values for Uncomplexed Compounds, NCI-H69 (first value)
[8] = read-out: IC50 Values for Uncomplexed Compounds, NCI-H69 (second value)

| Compound | TUMOR [1] [%ID/g] | T:B [1] | T:M [1] | IC50 [2, 7] [nM] | IC50 [2, 8] [nM] | further results |
| --- | --- | --- | --- | --- | --- | --- |
| C[C@@H](O)[C@@H]1NC(=O)[C@H](CCCCN)NC(=O)[C@@H](Cc2c[nH]c3ccccc23)NC(=O)[C@H](Cc2ccc(O)cc2)NC(=O)[C@H](CCSCC(=O)NC[C@H](N)C(=O)N[C@@H](CCCCN)C(=O)N[C@@H](CS)C(=O)N[C@H](CO)[C@@H](C)O)N(C)C(=O)[C@H](Cc2ccccc2)NC1=O [cyclo-Tyr-D-Trp-Lys-Thr-Phe-(N—CH3)Hcy(CH2 CO-β-Dap-Lys-Cys-Thr(ol))] | 10.2 | 48 | 104 | 0.346 | 234 | – |
| C[C@@H](O)[C@@H]1NC(=O)[C@H](CCCCN)NC(=O)[C@@H](Cc2c[nH]c3ccccc23)NC(=O)[C@H](Cc2ccc(O)cc2)NC(=O)[C@H](CCSCC(=O)NC[C@H](N)C(=O)N[C@@H](CCCN)C(=O)N[C@@H](CS)C(=O)N[C@H](CO)[C@@H](C)O)N(C)C(=O)[C@H](Cc2ccccc2)NC1=O [cyclo-Tyr-D-Trp-Lys-Thr-Phe-(N—CH3)Hcy(CH2 CO-β-Dap-Orn-Cys-Thr(ol))] | 10.3 | 24 | 96 | 0.505 | 744 | – |
| C[C@@H](O)[C@@H]1NC(=O)[C@H](CCCCN)NC(=O)[C@@H](Cc2c[nH]c3ccccc23)NC(=O)[C@H](Cc2ccc(O)cc2)NC(=O)[C@H](CCSCC(=O)NC[C@H](N)C(=O)N[C@@H](Cc2ccc(N)cc2)C(=O)N[C@@H](CS)C(=O)N[C@H](CO)[C@@H](C)O)N(C)C(=O)[C@H](Cc2ccccc2)NC1=O [cyclo-Tyr-D-Trp-Lys-Thr-Phe-(N—CH3)Hcy(CH2 CO-β-Dap-Phe(4-NH2)-Cys-Thr(ol))] | 31.8 | 81 | 188 | 0.501 | < 0.001 | – |
| C[C@@H](O)[C@@H]1NC(=O)[C@H](CCCCN)NC(=O)[C@@H](Cc2c[nH]c3ccccc23)NC(=O)[C@H](Cc2ccc(O)cc2)NC(=O)[C@H](CCSCC(=O)NC[C@H](N)C(=O)N[C@@H](CO)C(=O)N[C@@H](CS)C(=O)N[C@H](CO)[C@@H](C)O)N(C)C(=O)[C@H](Cc2ccccc2)NC1=O [cyclo-Tyr-D-Trp-Lys-Thr-Phe-(N—CH3)Hcy(CH2 CO-β-Dap-Ser-Cys-Thr(ol))] | 12.6 | 31 | 144 | 1.57 | < 0.001 | – |
| CC(O)[C@H](NC(=O)[C@H](CS)NC(=O)[C@H](Cc1ccc(N)cc1)NC(=O)[C@@H](N)CNC(=O)CSCC[C@H]1C(=O)N[C@@H](Cc2ccc(O)cc2)C(=O)N[C@H](Cc2c[nH]c3ccccc23)C(=O)N[C@@H](CCCCN)C(=O)N[C@@H](C(C)O)C(=O)N[C@@H](Cc2ccccc2)C(=O)N1C)C(=O)N[C@@H](CO)C(=O)O (stereo partly drawn) [cyclo-Tyr-D-Trp-Lys-Thr-Phe-(N—CH3)Hcy(CH2CO-β-Dap-Phe(4—NH2)-Cys-Thr-Ser)] (I: cyclo(F[NMehCys]Y[dW]K[Thr(3ξ)]) / II: H-[Dap][Phe(4-NH2)]C[Thr(3ξ)]S-OH; linker I:2-II:1 via X1) | 24.7 | 29 | 127 | 0.201 | 8.91 | tissue uptake dose at 1.5 h ([3]; gastrointestinal tract, read-out: GI): 8 %ID; tissue uptake at 1.5 h ([3]; kidneys): 4.8 %ID/g; tissue uptake dose at 1.5 h ([3]; spleen, read-out: Spleen): 0.21 %ID; dose excreted at 1.5 h ([3]; urine): 59%; IC50 [4]: 0.433 nM |
| C[C@@H](O)[C@@H]1NC(=O)[C@H](CCCCN)NC(=O)[C@@H](Cc2c[nH]c3ccccc23)NC(=O)[C@H](Cc2ccc(O)cc2)NC(=O)[C@H](CCSCC(=O)NC[C@H](N)C(=O)N[C@@H](CCN)C(=O)N[C@@H](CS)C(=O)NC(CO)CO)N(C)C(=O)[C@H](Cc2ccccc2)NC1=O [cyclo-Tyr-D-Try-Lys-Thr-Phe-(N—CH3)Hcy(CH2 CO-β-Dap-Dab-Cys-Ser(ol))] | 10.8 | 30 | 89 | 1.08 | – | – |
| ^90Y-DOTA-lanreotide | – | – | – | – | – | 90Y kidney doses [5]: 1.98-2.43 mGy/MBq; spleen doses [5]: 1.68-3.35 mGy/MBq |
| ^111In-DOTA-lanreotide | – | – | – | – | – | retention in human liver [6]: about 3.2 % injected dose; retention in kidney ([6]; human): about 2.5 % injected dose; retention in spleen ([6]; human): about 1.2 % injected dose |
